One test has as its system influenza. Nature of the test: Potency against influenza (test not specified).
A further test has as its system MDCK cells. Kind of test: Cell growth assay (MTT) in MDCK cells. The format is cell-based, canine. The following applies: Canis lupus familiaris, 2-3 days, read-out: IC50, concentration required to achieve a 50% reduction of optical density (cell growth). The protocol: Effects of the pyridazine derivatives of the invention on cell growth were determined in MDCK cells in 96 well plates by a tetrazolium-based calorimetric method (R. Pauwels et al., J. Virol. Methods, 20, 309-321 (1988)). This assay detects the in situ reduction of 3-(4,5-dimethylthiazol-2-yl)-2,5-diphenyltetrazolium bromide (MTT) by viable cells. Approximately 1×10^4 cells were seeded per well and incubated with drug-containing growth media for 2-3 days (3-4 cell doublings). The drug concentration resulting in a reduction of optical density by 50% was determined.

Test [1] addresses influenza A/WSN virus transcriptase (Influenza A virus, UniProt P03427+P03430+P15659). Kind of test: biochemical. The following applies: 45 minutes at 31° C, 1% DMSO; read-out: IC50, concentration required to achieve 50% inhibition of influenza A/WSN virus transcriptase activity.
For test [2], the target named is influenza virus cleavage of cap 1 RNA (Influenza A virus, UniProt P03427+P15659). Kind of test: Assay for cleavage of cap 1 AIMV RNA4 by influenza virus. The format is biochemical. The following applies: read-out: IC50, 50% inhibition of influenza virus cleavage of cap 1 RNA.
The next test concerns influenza A/WSN virus. Kind of test: Plaque reduction in MDCK cells, influenza A/WSN.
The subject of test [3] is influenza A/Victoria virus. Kind of test: Plaque reduction in MDCK cells, influenza A/Victoria.
Description: (§1) Compounds were evaluated for antiviral activity against influenza A/WSN, A/Victoria and B/Lee viruses by plaque reduction in Madin Darby canine kidney (MDCK) cells. Duplicate monolayers of MDCK cells in 6 well plates were washed free of protein-containing media, infected with 50-100 plaque-forming units of virus (0.4 ml. volume), and incubated at 37° C. for 60 minutes. After aspiration of the virus inoculum, a 0.6% agarose overlay (3 ml.) containing Eagle minimal essential media, trypsin (8 μg/ml.), and the appropriate drug dilution (final concentration of 1% DMSO) was added to the cell monolayer. Plates were incubated at 370° C. in a humidified atmosphere of 5% CO2 in air. After 48 hours, monolayers were fixed with glutaraldehyde, stained with 0.1% crystal violet and the plaques were counted. The percentage of plaque inhibition relative to the infected control (no drug) plates were calculated for each drug concentration and the 50% inhibitory concentration (IC50) was determined.
For a further test, the system named is influenza B/Lee virus. Kind of test: Plaque reduction in MDCK cells, influenza B/Lee. To be noted: read-out: IC50, […], B/Lee, 48 hours.
The mark [4] stands for this setting: MDCK, 48 h, read-out: IC50, […], A/WSN, MDCK cells, 48 hours.
The mark [5] stands for this setting: MDCK, 48 h, read-out: IC50, […], A/Victoria, MDCK cells, 48 hours.
Where [6] appears, read: read-out: IC50, […], A/WSN, MDCK cells, 48 hours.

pIC50: −log10 of the molar value. Structures can show the parent of a compound that is named as a salt. Where two headings read alike, the source gives them in different places. A value given as a limit tells only on which side of the number the result lay.

Description for influenza B/Lee virus: as §1

`CC1=NN(c2ccc(C)c(S(N)(=O)=O)c2)C(=O)C(=O)C1=O` [2-methyl-5-(6-methyl-3,4,5-trioxo-2H,3H,4H,5H-pyridazinyl)benzenesulfonamide]: the potency against influenza entry in the test with influenza is “significant potency”.

With `CC1=NN(c2ccc(C(N)=O)cc2)C(=O)C(=O)C1=O` [4-(6-methyl-3,4,5-trioxo-2H,3H,4H,5H-pyridazinyl)benzenecarboxamide], in the test on influenza, the potency against influenza result is reported as “significant potency”.

`CC1=NN(c2ccc3c(c2)S(=O)(=O)NC3=O)C(=O)C(=O)C1=O` [6-(6-methyl-3,4,5-trioxo-2H,3H,4H,5H-pyridazinyl)-1,1-dioxo-1,2-dihydro-1λ^6-benz<d>isothiazol-3-one]: the potency against influenza result in the test with influenza is on record as “significant potency”.

As to `CC1=NN(c2ccc(C(=O)O)cc2C)C(=O)C(=O)C1=O` [Example 1, 3-methyl-4-(6-methyl-3,4,5-trioxo-2H,3H,4H,5H-pyridazinyl)benzoic acid], the pIC50 in the test with MDCK cells was below 3.70; in test [1], 7.00; in test [2], 6.70; in the test with influenza A/WSN virus (setting [4]) it was 4.30; in test [3] (setting [5]) it was 4.05.

In the case of `CC1=NN(c2ccc(C(=O)O)cc2C)C(=O)C(=O)C1=O` [Example 2, Sodium Salt of 3-methyl-4-(6-methyl-3,4,5,-trioxo-2H,3H,4H,5H-pyridazinyl)benzoic acid], the pIC50 in the test with influenza A/WSN virus (setting [6]) was 4.00; in the test on influenza B/Lee virus, below 3.70.

With `CC1=NN(c2ccc(C(=O)O)c(Cl)c2)C(=O)C(=O)C1=O` [Example 3, 2-chloro-4-(6-methyl-3,4,5-trioxo-2H,3H,4H,5H-pyridazinyl)benzoic acid], the pIC50 in the test with influenza A/WSN virus (setting [4]) was 4.80; in test [3] (setting [5]), 4.30.

On to `CC1=NN(c2ccc(S(N)(=O)=O)cc2)C(=O)C(=O)C1=O` [Example 4, 4-(6-methyl-3,4,5-trioxo-2H,3H,4H,5H-pyridazinyl)benzene sulfonamide], for which the pIC50 is below 4.00 in the test on MDCK cells; 6.00 in test [1]; 5.70 in test [2]; 5.10 in the test with influenza A/WSN virus (setting [4]); 5.10 in test [3] (setting [5]).

With `CC1=NN(c2ccc(S(N)(=O)=O)cc2)C(=O)C(=O)C1=O` [Example 5, Sodium Salt of 4-(6-methyl-3,4,5-trioxo-2H,3H,4H,5H-pyridazinyl)benzoic sulfonamide], the pIC50 is 5.10 with influenza A/WSN virus (setting [6]); 4.52 in the test with influenza B/Lee virus; 4.96 in test [3] (read-out: IC50, […], A/Victoria, MDCK cells, 48 hours).

Turning to `CC1=NN(c2ccc(-c3nnn[nH]3)cc2)C(=O)C(=O)C1=O` [Example 6, 2-(4-tetrazolylphenyl) 2,3,4,5-tetrahydro-6-methyl-pyridazine-3,4,5-trione], the pIC50 was 6.70 in test [1], 6.00 in the test on influenza A/WSN virus (setting [4]) and 5.70 in test [3] (setting [5]).

Consider `CC1=NN(c2ccc(-c3nn[nH]n3)cc2)C(=O)C(=O)C1=O` [Example 7, Sodium Salt of 2-(4-tetrazolylphenyl) 2,3,4,5-tetrahydro-6-methyl-pyridazine-3,4,5-trione], for which the pIC50 with influenza A/WSN virus (setting [4]) is 5.70.

On to `CC1=NN(c2ccc3[nH]ncc3c2)C(=O)C(=O)C1=O` [Example 8, 5-indazolyl-2,3,4,5-tetrahydro-6-methyl-pyridazine-3,4,5-trione], for which, in the test with influenza A/WSN virus (setting [4]), the pIC50 is 4.30.

Take `CC1=NN(c2ccc3[nH]nnc3c2)C(=O)C(=O)C1=O` [Example 9, 5-benzotriazolyl-2,3,4,5-tetrahydro-6-methyl-pyridazine-3,4,5-trione]: the pIC50 in the test on influenza A/WSN virus (setting [4]) was 4.70.

For the compound `CC1=NN(c2ccc(S(=O)(=O)Nc3cccnc3)cc2)C(=O)C(=O)C1=O` [N-(3-pyridyl)-4-(6-methyl-3,4,5-trioxo-2H,3H,4H,5H-pyridazinyl)benzenesulfonamide], the potency against influenza result in the test on influenza is reported as “significant potency”.

As to `CC(=O)NS(=O)(=O)c1ccc(N2N=C(C)C(=O)C(=O)C2=O)cc1` [N-acetyl-4-(6-methyl-3,4,S-trioxo-2H,3H,4H,5H-pyridazinyl)benzenesulfonamide], the potency against influenza result with influenza is reported as “significant potency”.

In the case of `CNS(=O)(=O)c1ccc(N2N=C(C)C(=O)C(=O)C2=O)cc1` [N-methyl-4-(6-methyl-3,4,5-trioxo-2H,3H,4H,5H-pyridazinyl)benzenesulfonamide], the potency against influenza entry with influenza was “significant potency”.

For `CNS(=O)(=O)c1ccc(Cl)c(N2N=C(C)C(=O)C(=O)C2=O)c1` [N-methyl-4-chloro-3-(6-methyl-3,4,5-trioxo-2H,3H,4H,5H-pyridazinyl)benzenesulfonamide], the potency against influenza result in the test with influenza is reported as “significant potency”.

Turning to `CC1=NN(c2ccc(S(=O)(=O)Nc3ccccc3)cc2)C(=O)C(=O)C1=O` [N-phenyl-4-(6-methyl-3,4,5-trioxo-2H,3H,4H,5H-pyridazinyl)benzenesulfonamide], in the test on influenza, the potency against influenza result was “significant potency”.

The record behind these values is patent publication US5821243A, “Compounds compositions and methods for treating influenza” (priority 1997, dated 1998).
